Results on 51 compounds are retold here after patent US20140243292A1, “SUBSITUTED 2-(CHROMAN-6-YLOXYL)-THIAZOLES AND THEIR USE AS PHARMACEUTICALS” (Sanofi, priority 2011, published 2014).

Where a name gives a salt, the structure may show the parent alone.

In the assay the target is T1, human NCX1 (Homo sapiens, UniProt P32418).
T1 construct: expressed in transfected cells
The assay is described as follows: NCX1 inhibition, reverse mode (Ca2+ influx into cells), FLIPR Fluo-4 assay. The settings on record: inhibition of NCX1 in reverse mode (Ca2+ influx into cells); read-out: NCX1rv IC50. The format is cell-based. The source says: The sodium/calcium exchanger NCX1 can transport calcium ions and sodium ions through the cell membrane. The transport is an exchange of Ca^2+ and Na^+ in two directions depending on membrane potential and ion gradients. At the first direction, named “forward mode” or “calcium export mode”, Ca^2+ is transported out of the cell and Na^+ is transported into the cell. At the other direction, named “reverse mode” or “calcium import mode”, the transport directions are vice versa. The effect of the compounds of the invention on NCX1 was determined in CHO cells stably expressing human NCX1 (gene symbol SLC8A1; cf. WO 2009/115238). The assay is based on the monitoring of intracellular Ca^2+ concentrations using a calcium-sensitive fluorescence dye which is detected by means of a FLIPR device (Fluorimetric Imaging Plate Reader, Molecular Devices).
The assay is based on the monitoring of intracellular Ca^2+ concentrations using the calcium-sensitive dye Fluo-4. CHO cells expressing NCX1 were loaded with the dye by means of the acetoxymethyl ester Fluo-4 AM (Invitrogen, F14202), which is cleaved intracellularly by esterase activity to yield the charged species of free Fluo-4. After an preincubation period with the test compound, Gramicidine (Sigma, G5002) was added. Gramicidine is an ionophor for Na^+ ions mediating an increase of intracellular Na^+ ions. Consequently, intracellular Na^+ ions are exchanged against extracellular Ca^2+ ions (Ca^2+ influx, reverse mode). The intracellular elevation of Ca^2+ ions was detected by measuring the fluorescence of Fluo-4 at a wavelength of 520 nm by a FLIPR device.
Briefly, for the reverse mode transport assay 18000 cells per well were seeded into a 96 well microplate (Corning COSTAR 3904) and incubated overnight in culture medium (1× Nut Mix F12 (Ham) (Gibco, 21765-029); 10% (v/v) fetal calf serum (PAA Gold, A15-649); 450 μg/ml Geneticin (Gibco, 10131-027)). A total volume of 100 μl medium per well was used. For the preparation of the FLIPR assay, the culture medium was removed from the plates and 100 μl of dye solution (2 μM Fluo-4 AM; 0.02% (v/v) Pluronic F-127 (20%, Invitrogen, P3000MP); 0.1% (v/v) bovine albumin solution (30% (v/v), Sigma, A9205) in assay buffer (133.8 mM NaCl (Sigma, S5886); 4.7 mM KCl (Sigma, P3911); 1.25 mM MgCl2 (Merck, 1.05833.0250); 3.5 mM CaCl2 (Merck, 1.02083.0250); 5 mM glucose (Sigma, G7021); 10 mM Hepes (Sigma, H4034); 0.01% (v/v) Pluronic F-127 (5%, Sigma, P2443); 2.5 mM Probenecid (Maybridge, SB00915EB); pH 7.4)) were added into each well. The plates were incubated in the dark at room temperature for 80 min. After the incubation period, the dye solution was removed and the wells were washed with 100 μl of assay buffer. Then 80 μl of a solution of the test compound in assay buffer in different concentrations were added into the wells. The plates were incubated at 16° C. for 45 min. Meanwhile a 60 μM solution of Gramicidine in assay buffer (4° C.) was prepared and stored in the wells of a 96 well microplate (96 well microplate, polypropylene, U-shape (Greiner Bio-One, 650201)) at 4° C. until measurement was started. The fluorescence monitoring was performed at 240 measuring points with measurement intervals of 2 sec. After the fifth measuring point, 40 μl of the Gramicidine solution were added to each well of the assay plates to give a final Gramicidine concentration of 20 μM. For the determination of the IC50 values the minimal fluorescence value was subtracted from the maximal fluorescence value for all measuring points. The calculation of the IC50 values via the percentage inhibitions of Ca^2+ influx into cells (reverse mode) effected by the test compound was performed in Biost@t Speed 2.0.

For orientation: IC50 means the concentration that gives 50% inhibition. In the case of `CN1CCN(Cc2cnc(Oc3ccc4c(c3)CCC(c3ccccc3)O4)s2)CC1` (stereo not drawn) [compound 122], the IC50 turned out to be 800 nM.

As for `CN(C)c1cc(CNC(=O)c2cnc(Oc3ccc4c(c3)CCC(c3ccccc3)O4)s2)ccn1` (stereo not drawn) [compound 29], the 50% inhibitory concentration (IC50) came to 100 nM.

As for `Cc1ccccc1C1CCc2cc(Oc3ncc(C(=O)NCCc4c(C)noc4C)s3)ccc2O1` (stereo not drawn) [compound 176], the half-maximal inhibitory concentration (IC50) is 400 nM.

Turning to `O=C(CN1CC[C@@H](O)C1)NCc1cnc(Oc2ccc3c(c2)CCC(c2ccccc2)O3)s1` (stereo partly drawn) [compound 175], the IC50 is 400 nM.

In the case of `O=C(NCc1cnc(Oc2ccc3c(c2)CCC(c2cccc(F)c2)O3)s1)c1cccnc1` (stereo not drawn) [compound 44, hydrochloride], the IC50 turned out to be 200 nM.

Regarding `Cc1csc(CCNCc2cnc(Oc3ccc4c(c3)CCC(c3ccccc3)O4)s2)n1` (stereo not drawn) [compound 151], the concentration for half-maximal inhibition (IC50) stood at 400 nM.

Regarding `O=C(O)CN1CCN(C(=O)c2cnc(Oc3ccc4c(c3)CC[C@@H](c3ccccc3)O4)s2)CC1` [compound 198], the IC50 was 1300 nM.

Take `Cc1noc(C)c1CCNC(=O)c1cnc(Oc2ccc3c(c2)CCC(c2cccc(OC(C)C)c2)O3)s1` (stereo not drawn) [compound 97]: the half-maximal inhibitory concentration (IC50) turned out to be 1200 nM.

With `Cc1noc(C)c1CCC(=O)NCc1cnc(Oc2ccc3c(c2)CCC(c2ccccc2)O3)s1` (stereo not drawn) [compound 94], the IC50 amounted to 900 nM.

`O=C(NCc1ccno1)c1cnc(Oc2ccc3c(c2)CCC(c2ccc(Cl)nc2)O3)s1` (stereo not drawn) [compound 277, hydrochloride]: the concentration for half-maximal inhibition (IC50) was 2000 nM.

With `O=C(c1cnc(Oc2ccc3c(c2)CCC(c2ccccc2)O3)s1)N1CCCCC1` (stereo not drawn) [compound 316], the IC50 was 500 nM.

For `Cc1ccn(CCNCc2cnc(Oc3ccc4c(c3)CCC(c3ccccc3)O4)s2)n1` (stereo not drawn) [compound 136], the IC50 was determined as 500 nM.

In the case of `O=C(NC1CCCC1O)c1cnc(Oc2ccc3c(c2)CCC(c2ccccc2)O3)s1` (stereo not drawn) [compound 355], the half-inhibitory concentration (IC50) turned out to be 250 nM.

With `O=C(NC1(C(=O)O)CCCC1)c1cnc(Oc2ccc3c(c2)CC[C@@H](c2ccccc2)O3)s1` [compound 195], the IC50 was 700 nM.

With `CCC(C)(C)NCc1cnc(Oc2ccc3c(c2)CCC(c2ccccc2)O3)s1` (stereo not drawn) [compound 112], the IC50 worked out at 300 nM.

On to `CC(C)(C)[C@H](NC(=O)c1cnc(Oc2ccc3c(c2)CCC(c2cccnc2)O3)s1)C(=O)O` (stereo partly drawn) [compound 273], for which the half-maximal inhibitory concentration (IC50) is 10100 nM.

`O=S(=O)(NCc1cnc(Oc2ccc3c(c2)CCC(c2ccccc2)O3)s1)c1cccnc1` (stereo not drawn) [compound 47, hydrochloride]: the half-inhibitory concentration (IC50) worked out at 100 nM.

Take `CC(C)[C@@H](CO)NC(=O)c1cnc(Oc2ccc3c(c2)CC[C@@H](c2ccccc2)O3)s1` [compound 203]: the IC50 is 400 nM.

As to `CCOC(=O)[C@H](C)NC(=O)c1cnc(Oc2ccc3c(c2)CC[C@@H](c2ccccc2)O3)s1` [compound 180], the half-maximal inhibitory concentration (IC50) was found to be 200 nM.

Take `Cn1nccc1C(=O)NCc1cnc(Oc2ccc3c(c2)CCC(c2ccccc2)O3)s1` (stereo not drawn) [compound 86]: the half-maximal inhibitory concentration (IC50) stood at 300 nM.

For the compound `CCCNCc1cnc(Oc2ccc3c(c2)CCC(c2ccccc2)O3)s1` (stereo not drawn) [compound 116], the 50% inhibitory concentration (IC50) came to 200 nM.

As to `CCc1ccccc1C1CCc2cc(Oc3ncc(C(=O)NCCN4CCNC4=O)s3)ccc2O1` (stereo not drawn) [compound 322], the IC50 amounted to 1100 nM.

For `CC(C)OC(=O)CNC(=O)c1cnc(Oc2ccc3c(c2)CCC(c2ccccc2)O3)s1` (stereo not drawn) [compound 307], the half-inhibitory concentration (IC50) turned out to be 200 nM.

With `Cc1cccc(C)c1C1CCc2cc(Oc3ncc(C(=O)N(C)C)s3)ccc2O1` (stereo not drawn) [compound 338], the 50% inhibitory concentration (IC50) is 8700 nM.

As to `OCCN(CCO)Cc1cnc(Oc2ccc3c(c2)CCC(c2ccccc2)O3)s1` (stereo not drawn) [compound 319], the IC50 was found to be 800 nM.

Take `Cc1noc(C)c1CCCNC(=O)c1cnc(Oc2ccc3c(c2)CCC(c2ccccc2)O3)s1` (stereo not drawn) [compound 38]: the IC50 was 300 nM.

For the compound `O=C(NCc1ccno1)c1cnc(Oc2ccc3c(c2)CCC(c2ccccc2)O3)s1` (stereo not drawn) [compound 24], the IC50 came to 100 nM.

On to `Cn1nccc1S(=O)(=O)NCc1cnc(Oc2ccc3c(c2)CCC(c2ccccc2)O3)s1` (stereo not drawn) [compound 128], for which the concentration for half-maximal inhibition (IC50) amounted to 300 nM.

Regarding `Cc1cc2c(cc1Oc1ncc(C(=O)NCc3ccno3)s1)CCC(c1ccccc1C)O2` (stereo not drawn) [compound 358], the IC50 stood at 830 nM.

With `Cc1cc(C(=O)NCc2cnc(Oc3ccc4c(c3)CCC(c3ccccc3)O4)s2)nc(C)n1` (stereo not drawn) [compound 91], the IC50 was determined as 5300 nM.

As to `Cc1cc(CNCc2cnc(Oc3ccc4c(c3)CCC(c3ccccc3)O4)s2)on1` (stereo not drawn) [compound 160], the IC50 turned out to be 200 nM.

Turning to `Cc1ncsc1CCNC(=O)c1cnc(Oc2ccc3c(c2)CCC(c2ccccc2)O3)s1` (stereo not drawn) [compound 7], the IC50 came out at 300 nM.

Regarding `O=C(Cc1ccncc1)NCc1cnc(Oc2ccc3c(c2)CCC(c2cccc(F)c2)O3)s1` (stereo not drawn) [compound 46, hydrochloride], the half-maximal inhibitory concentration (IC50) amounted to 200 nM.

Consider `COC(=O)[C@H](O)[C@H](CC(C)C)NC(=O)c1cnc(Oc2ccc3c(c2)CC[C@@H](c2ccccc2)O3)s1` [compound 226], for which the IC50 turned out to be 700 nM.

In the case of `CCCNC(=O)c1cnc(Oc2ccc3c(c2)CC[C@@H](c2ccccc2)O3)s1` [compound 281], the concentration for half-maximal inhibition (IC50) came out at 600 nM.

Consider `CC(C)C[C@H](NC(=O)c1cnc(Oc2ccc3c(c2)CC[C@@H](c2ccccc2)O3)s1)C(=O)O` [compound 241], for which the IC50 amounted to 600 nM.

For `O=C(NCc1ccncc1)c1cnc(Oc2ccc3c(c2)CC[C@@H](c2ccccc2)O3)s1` [compound 36], the 50% inhibitory concentration (IC50) came out at 100 nM.

In the case of `CC[C@H](C)[C@H](NC(=O)c1cnc(Oc2ccc3c(c2)CCC(c2cccnc2)O3)s1)C(=O)O` (stereo partly drawn) [compound 270], the IC50 worked out at 12500 nM.

Consider `Cc1nc2ccc(S(=O)(=O)NCc3cnc(Oc4ccc5c(c4)CCC(c4ccccc4)O5)s3)cc2s1` (stereo not drawn) [compound 124], for which the concentration for half-maximal inhibition (IC50) is 900 nM.

For `CCn1nccc1CNC(=O)c1cnc(Oc2ccc3c(c2)CCC(c2cccc(OC)c2F)O3)s1` (stereo not drawn) [compound 362], the half-inhibitory concentration (IC50) was 1500 nM.

As for `CC[C@H](C)[C@@H](CO)NC(=O)c1cnc(Oc2ccc3c(c2)CC[C@@H](c2ccccc2)O3)s1` [compound 208], the half-inhibitory concentration (IC50) stood at 400 nM.

As to `O=C(c1cnc(Oc2ccc3c(c2)CCC(c2cccnc2)O3)s1)N1CCC[C@H]1CO` (stereo partly drawn) [compound 259], the IC50 is 1800 nM.

For `O=C(NCc1cnc(Oc2ccc3c(c2)CCC(c2ccccc2)O3)s1)c1ccncc1F` (stereo not drawn) [compound 81], the concentration for half-maximal inhibition (IC50) worked out at 1100 nM.

As for `Cc1noc(C)c1CC(=O)NCc1cnc(Oc2ccc3c(c2)CCC(c2ccccc2)O3)s1` (stereo not drawn) [compound 77], the 50% inhibitory concentration (IC50) is 400 nM.

Consider `O=C(NCc1cnc(Oc2ccc3c(c2)CCC(c2ccccc2)O3)s1)c1ccnc(Cl)c1` (stereo not drawn) [compound 68], for which the IC50 is 800 nM.

Consider `O=C(NCCO)c1cnc(Oc2ccc3c(c2)CCC(c2ccccc2)O3)s1` (stereo not drawn) [compound 295], for which the half-maximal inhibitory concentration (IC50) was determined as 400 nM.

Turning to `CO[C@H]1CNC[C@@H]1NC(=O)c1cnc(Oc2ccc3c(c2)CCC(c2cccnc2)O3)s1` (stereo partly drawn) [compound 269, hydrochloride], the IC50 stood at 2600 nM.

As for `CCn1nccc1CNC(=O)c1cnc(Oc2ccc3c(c2)CCC(c2cccc(F)c2OC)O3)s1` (stereo not drawn) [compound 365], the half-inhibitory concentration (IC50) came out at 550 nM.

As for `Cc1c(CNC(=O)c2cnc(Oc3ccc4c(c3)CCC(c3cccc(F)c3)O4)s2)cnn1C` (stereo not drawn) [compound 51], the half-maximal inhibitory concentration (IC50) is 200 nM.

For the compound `Cc1c(C(C)NCc2cnc(Oc3ccc4c(c3)CCC(c3ccccc3)O4)s2)cnn1C` (stereo not drawn) [compound 148], the concentration for half-maximal inhibition (IC50) was 400 nM.

`Cc1nc(C)c(S(=O)(=O)NCc2cnc(Oc3ccc4c(c3)CCC(c3ccccc3)O4)s2)s1` (stereo not drawn) [compound 126]: the half-maximal inhibitory concentration (IC50) worked out at 600 nM.
